According to patent publication US8853418B2, “Cyclopentylpyrazoles as N-type calcium channel blockers” (Janssen Pharmaceutica NV, priority 2012, dated 2014):

Biological target: N-type calcium channel (α1B (Cav2.2), β3 and α2δ subunits) (Homo sapiens, UniProt Q00975)
Experiment: Functional Assay: Antagonism of N-Type Calcium Channel (FDSS calcium mobilization, KCl depolarization)
Assay type: cell-based
Details: for IC50: HEK cell line, 50 mM KCl depolarization, six-point concentration-response, read-out: FDSS IC50
Method: A stable cell line (HEK parent) co-expressing the α1B (Cav2.2), β3 and α2δ subunits of the N-type calcium channel subunits was used. These cells were routinely grown as monolayers in low glucose-containing Dulbecco's Modified Eagle Medium supplemented with 10% FBS, 2 mM L-glutamine, 100 I.U./mL penicillin, 100 μg/mL streptomycin, 400 μg/mL G418 and 200 μg/mL Zeocin (split ratio=1:5). Cells were maintained in 5% CO2 at 37° C. Compounds of Formula (I) were prepared as 10 mM stocks in DMSO from neat compound, if available. Otherwise, the 5 or 10 mM DMSO stock solutions provided in-house were used.
Calcium mobilization responses to KCl depolarization were evaluated by measuring the intensity of calcium-mediated fluorescent signal in the presence of BD Calcium Assay Dye (BD Biosciences, Franklin Lakes, N.J., U.S.A.), utilizing a Functional Drug Screening System (FDSS) by Hamamatsu Corporation (Bridgewater, N.J. U.S.A.).
Twenty-four hr prior to assay, cells were seeded in clear-base poly-D-lysine-coated 384-well plates (BD Biosciences) at a density of 5,000 cells per well in culture medium and grown overnight in 5% CO2 at 37° C. On the day of assay, growth media were removed, and cells were loaded with BD calcium assay dye (BD Biosciences) for 35 min at 37° C. under 5% CO2 and then for 25 min at room temp. Utilizing the FDSS, cells were exposed to representative compounds of Formula (I) at varying concentrations, and intracellular calcium was measured for 5 min prior to the addition of 50 mM KCl for an additional 3 min of measurement.
Calculations and Formulas
IC50 values for representative compounds of Formula (I) were determined from six-point concentration-response experiments and represent the concentration of said compound required to inhibit 50% of the maximal response. Maximal fluorescence intensity (FI) achieved upon addition of 50 mM KCl was exported from the FDSS software and further analyzed using GraphPad Prism 3.02 (Graph Pad Software Inc., San Diego, Calif., U.S.A.). Data were normalized to the maximum average counts from quadruplicate wells for each condition in the presence of 50 mM KCl and to the minimum average counts in the presence of buffer. Theoretical curves were generated using nonlinear regression curve-fitting analysis of either sigmoidal concentration-response or sigmoidal concentration-response (variable slope), and the IC50 values with the best-fit curve determined by GraphPad Prism were reported.

N-type calcium channel (α1B (Cav2.2), β3 and α2δ subunits), sequence (Q00975 whole entry): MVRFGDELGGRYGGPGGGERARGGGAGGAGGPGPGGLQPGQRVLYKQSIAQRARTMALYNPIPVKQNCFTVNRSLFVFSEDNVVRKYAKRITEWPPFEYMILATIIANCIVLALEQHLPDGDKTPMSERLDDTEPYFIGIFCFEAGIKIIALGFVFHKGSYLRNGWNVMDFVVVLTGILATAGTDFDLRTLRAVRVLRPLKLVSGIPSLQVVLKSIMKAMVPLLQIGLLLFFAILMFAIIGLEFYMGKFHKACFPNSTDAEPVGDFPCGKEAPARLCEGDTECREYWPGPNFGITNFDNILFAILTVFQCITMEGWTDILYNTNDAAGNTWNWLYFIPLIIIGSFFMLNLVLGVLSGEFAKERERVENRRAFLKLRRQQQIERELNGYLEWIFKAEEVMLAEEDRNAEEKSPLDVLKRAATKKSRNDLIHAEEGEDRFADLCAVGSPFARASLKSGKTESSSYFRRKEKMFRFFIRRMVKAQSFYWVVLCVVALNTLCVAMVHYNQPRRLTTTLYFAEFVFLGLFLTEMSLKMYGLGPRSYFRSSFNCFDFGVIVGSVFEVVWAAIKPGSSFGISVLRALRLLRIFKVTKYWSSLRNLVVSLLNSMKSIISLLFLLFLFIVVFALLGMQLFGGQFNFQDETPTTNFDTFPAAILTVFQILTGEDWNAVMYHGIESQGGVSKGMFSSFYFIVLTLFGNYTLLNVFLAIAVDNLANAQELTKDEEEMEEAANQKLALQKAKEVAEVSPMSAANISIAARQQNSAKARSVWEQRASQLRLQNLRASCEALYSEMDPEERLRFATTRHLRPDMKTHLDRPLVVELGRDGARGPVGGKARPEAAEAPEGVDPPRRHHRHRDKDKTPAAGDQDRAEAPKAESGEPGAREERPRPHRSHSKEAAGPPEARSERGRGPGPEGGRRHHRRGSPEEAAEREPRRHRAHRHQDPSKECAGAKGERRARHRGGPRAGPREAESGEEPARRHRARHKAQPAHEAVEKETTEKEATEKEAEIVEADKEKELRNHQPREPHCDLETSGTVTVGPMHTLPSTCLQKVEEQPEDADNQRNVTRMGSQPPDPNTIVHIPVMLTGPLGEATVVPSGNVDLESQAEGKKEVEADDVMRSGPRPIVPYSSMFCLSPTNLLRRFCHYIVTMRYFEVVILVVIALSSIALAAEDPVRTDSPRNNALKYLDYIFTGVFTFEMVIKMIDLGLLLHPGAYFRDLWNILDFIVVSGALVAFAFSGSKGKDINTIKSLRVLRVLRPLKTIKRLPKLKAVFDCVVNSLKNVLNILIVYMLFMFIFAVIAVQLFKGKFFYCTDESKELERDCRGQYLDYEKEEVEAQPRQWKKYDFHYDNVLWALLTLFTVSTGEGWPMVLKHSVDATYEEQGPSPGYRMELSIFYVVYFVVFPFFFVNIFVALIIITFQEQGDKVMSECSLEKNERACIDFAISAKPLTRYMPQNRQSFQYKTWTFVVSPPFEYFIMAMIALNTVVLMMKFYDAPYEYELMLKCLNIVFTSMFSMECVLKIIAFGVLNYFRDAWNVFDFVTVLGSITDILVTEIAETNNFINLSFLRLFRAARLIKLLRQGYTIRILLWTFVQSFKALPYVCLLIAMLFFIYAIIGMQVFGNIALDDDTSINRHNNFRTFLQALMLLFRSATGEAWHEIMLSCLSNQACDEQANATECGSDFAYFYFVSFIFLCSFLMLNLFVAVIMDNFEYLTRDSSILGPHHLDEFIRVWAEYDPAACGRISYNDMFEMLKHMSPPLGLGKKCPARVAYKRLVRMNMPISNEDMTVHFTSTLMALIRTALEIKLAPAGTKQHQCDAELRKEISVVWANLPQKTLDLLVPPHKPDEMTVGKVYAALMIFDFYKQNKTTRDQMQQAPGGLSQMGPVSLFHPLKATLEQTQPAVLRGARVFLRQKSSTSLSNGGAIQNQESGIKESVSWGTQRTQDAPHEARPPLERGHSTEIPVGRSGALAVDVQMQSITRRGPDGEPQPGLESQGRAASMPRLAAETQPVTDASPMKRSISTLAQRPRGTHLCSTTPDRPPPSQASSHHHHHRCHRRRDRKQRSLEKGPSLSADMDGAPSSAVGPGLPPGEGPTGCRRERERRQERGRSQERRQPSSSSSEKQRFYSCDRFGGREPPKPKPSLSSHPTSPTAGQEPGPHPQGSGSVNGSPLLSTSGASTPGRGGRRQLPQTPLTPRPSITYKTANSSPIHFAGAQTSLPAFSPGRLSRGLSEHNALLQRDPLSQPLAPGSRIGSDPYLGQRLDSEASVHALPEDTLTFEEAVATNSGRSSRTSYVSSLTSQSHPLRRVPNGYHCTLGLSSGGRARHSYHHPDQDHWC
N-type calcium channel (α1B (Cav2.2), β3 and α2δ subunits), sequence (P54284 whole entry partner): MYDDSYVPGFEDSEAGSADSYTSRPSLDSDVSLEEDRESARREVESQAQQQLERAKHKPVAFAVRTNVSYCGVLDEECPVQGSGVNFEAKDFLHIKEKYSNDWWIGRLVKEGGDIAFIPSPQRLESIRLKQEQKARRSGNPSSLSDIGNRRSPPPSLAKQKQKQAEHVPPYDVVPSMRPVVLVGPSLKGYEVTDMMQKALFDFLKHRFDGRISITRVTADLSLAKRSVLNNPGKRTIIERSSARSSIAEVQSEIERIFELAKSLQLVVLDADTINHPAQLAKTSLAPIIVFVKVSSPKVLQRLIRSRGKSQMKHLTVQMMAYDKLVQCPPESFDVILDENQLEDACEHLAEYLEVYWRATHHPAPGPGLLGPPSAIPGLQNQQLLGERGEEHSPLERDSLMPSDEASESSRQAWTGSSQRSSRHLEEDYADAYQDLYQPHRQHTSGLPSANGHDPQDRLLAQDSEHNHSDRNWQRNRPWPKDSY
N-type calcium channel (α1B (Cav2.2), β3 and α2δ subunits), sequence (P54289 25-946 partner limits assumed): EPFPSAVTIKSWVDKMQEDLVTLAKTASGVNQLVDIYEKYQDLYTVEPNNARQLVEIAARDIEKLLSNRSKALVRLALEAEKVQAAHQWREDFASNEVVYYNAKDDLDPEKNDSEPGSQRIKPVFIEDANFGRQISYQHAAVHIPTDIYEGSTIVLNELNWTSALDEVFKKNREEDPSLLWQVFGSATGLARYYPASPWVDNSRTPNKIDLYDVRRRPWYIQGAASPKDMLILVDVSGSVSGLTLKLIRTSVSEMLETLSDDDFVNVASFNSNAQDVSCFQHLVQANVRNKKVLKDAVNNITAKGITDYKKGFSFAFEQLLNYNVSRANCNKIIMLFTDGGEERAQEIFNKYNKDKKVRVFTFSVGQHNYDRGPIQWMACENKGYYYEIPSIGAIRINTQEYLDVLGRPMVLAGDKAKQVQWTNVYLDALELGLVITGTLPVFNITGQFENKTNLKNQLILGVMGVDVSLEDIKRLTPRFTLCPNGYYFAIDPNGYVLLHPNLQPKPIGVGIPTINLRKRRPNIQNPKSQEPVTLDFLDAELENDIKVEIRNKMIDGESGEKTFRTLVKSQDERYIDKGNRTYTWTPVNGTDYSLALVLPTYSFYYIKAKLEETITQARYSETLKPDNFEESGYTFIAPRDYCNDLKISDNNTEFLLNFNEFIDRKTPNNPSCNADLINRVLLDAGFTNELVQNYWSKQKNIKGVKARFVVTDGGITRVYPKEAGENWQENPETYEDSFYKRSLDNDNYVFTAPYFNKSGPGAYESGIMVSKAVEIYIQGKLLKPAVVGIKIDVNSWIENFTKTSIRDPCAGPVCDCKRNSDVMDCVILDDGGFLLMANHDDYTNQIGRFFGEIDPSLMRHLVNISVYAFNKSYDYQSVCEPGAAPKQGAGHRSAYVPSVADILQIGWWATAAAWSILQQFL
N-type calcium channel (α1B (Cav2.2), β3 and α2δ subunits), sequence (P54289 947-1103 partner limits assumed): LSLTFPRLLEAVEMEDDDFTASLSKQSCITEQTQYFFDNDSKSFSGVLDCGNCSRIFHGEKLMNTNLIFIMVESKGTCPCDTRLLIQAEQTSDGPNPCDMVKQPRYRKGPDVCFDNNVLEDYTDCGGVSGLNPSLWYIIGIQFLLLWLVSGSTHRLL

Compound | IC50 [nM] | inhibition at 1 µM [%] | inhibition at 0.33 µM [%]
CCc1ccccc1-n1nc2c(c1-c1ccc(Cl)cc1)CC(/C=N\C(=O)OC(C)(C)C)C2 (racemic) [Compound 15, tert-butyl{[3-(4-chlorophenyl)-2-(2-ethylphenyl)-2,4,5,6-tetrahydrocyclopenta[c]pyrazol-5-yl]methylidene}carbamate] | 300 | – | –
COc1ccccc1-n1nc2c(c1-c1ccc(Cl)cc1)CC(CCO)C2 (centres unmarked) [Compound 1, 2-[3-(4-chlorophenyl)-2-(2-methoxyphenyl)-2,4,5,6-tetrahydrocyclopenta[c]pyrazol-5-yl]ethanol] | 200 | – | –
C=CCC1Cc2nn(-c3ccccc3OC)c(-c3ccc(Cl)cc3)c2C1 (centres unmarked) [Compound 4, 3-(4-chlorophenyl)-2-(2-methoxyphenyl)-5-prop-2-en-1-yl-2,4,5,6-tetrahydrocyclopenta[c]pyrazole] | – | 81 | –
COc1ccccc1-n1nc2c(c1-c1ccc(Cl)cc1)CC(C(N)=O)C2 (centres unmarked) [Compound 6, 3-(4-chlorophenyl)-2-(2-methoxyphenyl)-2,4,5,6-tetrahydrocyclopenta[c]pyrazole-5-carboxamide] | 490 | – | 75
COc1ccccc1-n1nc2c(c1-c1ccccc1)CC(CNS(C)(=O)=O)C2 (centres unmarked) [Compound 7, N-{[2-(2-methoxyphenyl)-3-phenyl-2,4,5,6-tetrahydrocyclopenta[c]pyrazol-5-yl]methyl}methanesulfonamide] | – | – | 68
COc1ccccc1-n1nc2c(c1-c1ccccc1)CC(C#N)C2 (centres unmarked) [Compound 9, 2-(2-methoxyphenyl)-3-phenyl-2,4,5,6-tetrahydrocyclopenta[c]pyrazole-5-carbonitrile] | – | – | 59
COc1ccccc1-n1nc2c(c1-c1ccc(Cl)cc1)CC(C#N)C2 (centres unmarked) [Compound 10, 3-(4-chlorophenyl)-2-(2-methoxyphenyl)-2,4,5,6-tetrahydrocyclopenta[c]pyrazole-5-carbonitrile] | 300 | – | 83
CCOC(=O)C1Cc2nn(-c3ccccc3CC)c(-c3ccc(Cl)cc3)c2C1 (centres unmarked) [Compound 14, ethyl 3-(4-chlorophenyl)-2-(2-ethylphenyl)-2,4,5,6-tetrahydrocyclopenta[c]pyrazole-5-carboxylate] | 90 | – | –
CCc1ccccc1-n1nc2c(c1-c1ccc(Cl)cc1)CC(COC(=O)N(CC)CC)C2 (centres unmarked) [Compound 17, [3-(4-chlorophenyl)-2-(2-ethylphenyl)-2,4,5,6-tetrahydrocyclopenta[c]pyrazol-5-yl]methyl diethylcarbamate] | 180 | – | –
CCc1ccccc1-n1nc2c(c1-c1ccc(Cl)cc1)CC(CNS(C)(=O)=O)C2 (centres unmarked) [Compound 18, N-{[3-(4-chlorophenyl)-2-(2-ethylphenyl)-2,4,5,6-tetrahydrocyclopenta[c]pyrazol-5-yl]methyl}methanesulfonamide] | 200 | – | –
CCc1ccccc1-n1nc2c(c1-c1ccc(Cl)cc1)CC(CNC(=O)C(F)(F)F)C2 (centres unmarked) [Compound 19, N-{[3-(4-chlorophenyl)-2-(2-ethylphenyl)-2,4,5,6-tetrahydrocyclopenta[c]pyrazol-5-yl]methyl}-2,2,2-trifluoroacetamide] | 130 | – | –
CC(C)(C)OC(=O)NCCC1Cc2nn(-c3ccccc3C(F)(F)F)c(-c3ccc(Cl)cc3)c2C1 (centres unmarked) [Compound 20, tert-butyl(2-{3-(4-chlorophenyl)-2-[2-(trifluoromethyl)phenyl]-2,4,5,6-tetrahydrocyclopenta[c]pyrazol-5-yl}ethyl)carbamate] | 260 | – | –
CS(=O)(=O)NCCC1Cc2nn(-c3ccccc3C(F)(F)F)c(-c3ccc(Cl)cc3)c2C1 (centres unmarked) [Compound 21, N-(2-{3-(4-chlorophenyl)-2-[2-(trifluoromethyl)phenyl]-2,4,5,6-tetrahydrocyclopenta[c]pyrazol-5-yl}ethyl)methanesulfonamide] | – | 65 | –
CN(C)C(=O)NCCC1Cc2nn(-c3ccccc3C(F)(F)F)c(-c3ccc(Cl)cc3)c2C1 (centres unmarked) [Compound 22, 3-(2-{3-(4-chlorophenyl)-2-[2-(trifluoromethyl)phenyl]-2,4,5,6-tetrahydrocyclopenta[c]pyrazol-5-yl}ethyl)-1,1-dimethylurea] | 220 | – | –
CN(C)C(=O)OC1Cc2nn(-c3ccccc3OC(F)(F)F)c(-c3ccc(Cl)cc3)c2C1 (centres unmarked) [Compound 23, 3-(4-chlorophenyl)-2-[2-(trifluoromethoxy)phenyl]-2,4,5,6-tetrahydrocyclopenta[c]pyrazol-5-yl dimethylcarbamate] | 140 | – | –
O=C(OC1Cc2nn(-c3ccccc3OC(F)(F)F)c(-c3ccc(Cl)cc3)c2C1)N1CCOCC1 (centres unmarked) [Compound 24, 3-(4-chlorophenyl)-2-[2-(trifluoromethoxy)phenyl]-2,4,5,6-tetrahydrocyclopenta[c]pyrazol-5-ylmorpholine-4-carboxylate] | 150 | – | –
OC1Cc2nn(-c3ccccc3OC(F)(F)F)c(-c3ccc(Cl)cc3)c2C1 (centres unmarked) [Compound 25, 3-(4-chlorophenyl)-2-[2-(trifluoromethoxy)phenyl]-2,4,5,6-tetrahydrocyclopenta[c]pyrazol-5-ol] | – | 61 | –
COc1ccccc1-n1nc2c(c1-c1ccc(Cl)cc1)CC(O)C2 (centres unmarked) [Compound 26, 3-(4-chlorophenyl)-2-(2-methoxyphenyl)-2,4,5,6-tetrahydrocyclopenta[c]pyrazol-5-ol] | – | 62 | –
COc1ccccc1-n1nc2c(c1-c1ccc(Cl)cc1)CC(=O)C2 [Compound 35, 3-(4-chlorophenyl)-2-(2-methoxyphenyl)-2,6-dihydrocyclopenta[c]pyrazol-5(4H)-one] | 59 | – | –
CCOc1ccccc1-n1nc2c(c1-c1ccc(Cl)cc1)CC(N1CCCC1=O)C2 (centres unmarked) [Compound 40, 1-[3-(4-chlorophenyl)-2-(2-ethoxyphenyl)-2,4,5,6-tetrahydrocyclopenta[c]pyrazol-5-yl]pyrrolidin-2-one] | 19 | – | –
COc1ccccc1-n1nc2c(c1-c1ccc(Cl)cc1)C[C@@H](OC)C2 [Compound 49, (5R)-3-(4-chlorophenyl)-5-methoxy-2-(2-methoxyphenyl)-2,4,5,6-tetrahydrocyclopenta[c]pyrazole] | 52 | – | 76
COc1cc(Cl)ccc1-n1nc2c(c1-c1ccc(Cl)cc1)CC1(C2)OCCCO1 [Compound 52, 2-(4-Chloro-2-methoxyphenyl)-3-(4-chlorophenyl)-2,6-dihydro-4H-spiro[cyclopenta[c]pyrazole-5,2′-[1,3]dioxane]] | 130 | – | 64
COc1ccccc1-n1nc2c(c1-c1ccc(Cl)cc1)C/C(=N/O)C2 [Compound 53, (5Z)-3-(4-chlorophenyl)-2-(2-methoxyphenyl)-2,6-dihydrocyclopenta[c]pyrazol-5(4H)-one oxime] | – | – | 31
COc1ccccc1-n1nc2c(c1-c1ccc(Cl)cc1)C[C@H](Oc1ccccc1)C2 [Compound 58, (5S)-3-(4-chlorophenyl)-2-(2-methoxyphenyl)-5-phenoxy-2,4,5,6-tetrahydrocyclopenta[c]pyrazole] | 130 | – | 65
COc1ccccc1-n1nc2c(c1-c1ccc(Cl)cc1)C[C@H](Oc1cccnc1)C2 [Compound 59, (5S)-3-(4-chlorophenyl)-2-(2-methoxyphenyl)-5-(pyridin-3-yloxy)-2,4,5,6-tetrahydrocyclopenta[c]pyrazole] | 94 | – | 76
COc1ccccc1-n1nc2c(c1-c1ccc(Cl)cc1)CC(c1ccc(OC(C)C)nc1)C2 (centres unmarked) [Compound 60, 3-(4-chlorophenyl)-2-(2-methoxyphenyl)-5-[6-(1-methylethoxy)pyridin-3-yl]-2,4,5,6-tetrahydrocyclopenta[c]pyrazole] | 280 | – | 62
COc1ccccc1-n1nc2c(c1-c1ccc(Cl)cc1)C[C@@H](Oc1ccccn1)C2 [Compound 61, (5R)-3-(4-chlorophenyl)-2-(2-methoxyphenyl)-5-(pyridin-2-yloxy)-2,4,5,6-tetrahydrocyclopenta[c]pyrazole] | 98 | – | 77
COc1ccccc1-n1nc2c(c1-c1ccc(Cl)cc1)CC(c1ccc(N3CCOCC3)nc1)C2 (centres unmarked) [Compound 62, 3-(4-chlorophenyl)-2-(2-methoxyphenyl)-5-(6-morpholin-4-ylpyridin-3-yl)-2,4,5,6-tetrahydrocyclopenta[c]pyrazole] | – | – | 42
COc1ccccc1-n1nc2c(c1-c1ccc(Cl)cc1)CC(C1CCC(C)(C)CC1)C2 (centres unmarked) [Compound 64, 3-(4-chlorophenyl)-5-(4,4-dimethylcyclohexyl)-2-(2-methoxyphenyl)-2,4,5,6-tetrahydrocyclopenta[c]pyrazole] | 280 | – | 66
